According to PMC7769078 (International Journal of Nanomedicine, 2020):

What was measured:
[1] = test system: zebrafish larvae (7 dpf); test: C6-NPs endocytosis in larval zebrafish with endocytic inhibitors; assay type: in vivo, zebrafish (Danio rerio); settings: 7 dpf larvae, 30 min inhibitor, C6-NPs 100 ng/mL 30 min
[2] = test system: SH-SY5Y cells; test: Cytoprotection against MPP+-induced cell death in SH-SY5Y cells; assay type: cell-based, human; settings: for viability of MPP+-treated SH-SY5Y cells: 2 h pre-treatment, then 2 mM MPP+ 36 h

CN(C)CCCN1c2ccccc2Sc2ccc(Cl)cc21 [CPZ, chlorpromazine]
inhibitory effect on C6-NPs internalization in zebrafish larvae [1]: most profound inhibitory effect

C[n+]1ccc(-c2ccccc2)cc1 [MPP^+, 1-methyl-4-phenylpyridinium ion]
cell death induced in SH-SY5Y cells ([2]; 2 mM MPP+, 36 h): 47.6%

Ginkgolide B [GB]
viability of MPP+-treated SH-SY5Y cells ([2]; 1 μM): 60% | viability of MPP+-treated SH-SY5Y cells ([2]; 5 μM): 65% | viability of MPP+-treated SH-SY5Y cells ([2]; 10 μM): 71% | viability of MPP+-treated SH-SY5Y cells ([2]; 20 μM): 78%

methyl-β-cyclodextrin [MβCD]
inhibitory effect on C6-NPs internalization in zebrafish larvae [1]: most profound inhibitory effect
